Measured values as given in patent publication US5114925A, “Renin inhibitors containing the 2-[[(2R,3S)-3-amino-4-cyclohexyl-2-hydroxy-1-butyl]thio)alkanoyl moiety and the corresponding sulfoxide and sulfone derivatives” (Merck & Co., Inc., priority 1991, dated 1992).

These compounds were tested against T1, human renin (Homo sapiens, UniProt P00797) (assay: plasma renin assay (radioimmunoassay of angiotensin-I released in human plasma)). Conditions: human renin and human renin substrate in human plasma, 37° C., pH 6.9, angiotensin-I by radioimmunoassay; read-out: IC50 (the molar concentration required to cause 50% inhibition), renin inhibitory activity.
T1 construct: added to human plasma (75 μl) containing EDTA; from tissue; host or cells: human plasma
T1 sequence (P00797 67-406): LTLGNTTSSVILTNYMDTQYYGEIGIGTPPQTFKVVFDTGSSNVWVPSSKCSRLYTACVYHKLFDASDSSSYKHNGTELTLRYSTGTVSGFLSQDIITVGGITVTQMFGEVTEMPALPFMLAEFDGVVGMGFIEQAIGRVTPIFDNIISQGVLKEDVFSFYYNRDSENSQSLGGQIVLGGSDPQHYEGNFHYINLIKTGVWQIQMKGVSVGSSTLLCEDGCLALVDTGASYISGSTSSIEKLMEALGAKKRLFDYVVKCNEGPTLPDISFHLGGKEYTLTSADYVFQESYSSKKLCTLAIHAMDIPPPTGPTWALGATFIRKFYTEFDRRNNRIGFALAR
Format: biochemical
Protocol: It is based on the measurement, by radiommunoassay, of Angiotensin-I released from human renin substrate by human renin in human plasma. The inhibitor is dissolved in 0.01N HCl (10 μl) and added to human plasma (75 μl) containing EDTA, and angiotensin-I antibody ([…]) in 3M-Tris.HCl buffer (pH 6.9).
Free and bound ligand are separated by the addition of dextran-coated charcoal, and the amount of bound radio-ligand determined in a gamma counter.

Compared with `CC(C)(C)OC(=O)N[C@@H](Cc1ccccc1)C(=O)N[C@@H](Cc1cnc[nH]1)C(=O)N[C@@H](CC1CCCCC1)[C@@H](O)CS(=O)(=O)CC(=O)NCCN1CCOCC1`, `CC(C)(C)OC(=O)N[C@@H](Cc1ccccc1)C(=O)N[C@@H](Cc1cnc[nH]1)C(=O)N[C@@H](CC1CCCCC1)[C@@H](O)CSCC(=O)NCCN1CCOCC1` [4-[2-[2-[X-thio]acetamido]ethyl]morpholine] is 4.3-fold higher in IC50: 0.0094 µM for the first, 0.04 µM for the second. The first is the more potent here.

`CC(C)CC(SC[C@H](O)[C@H](CC1CCCCC1)NC(=O)[C@H](Cc1c[nH]cn1)NC(=O)[C@H](Cc1ccccc1)NC(=O)OC(C)(C)C)C(=O)NCCN1CCOCC1` (mixture of isomers) [4-[2-[[(2RS)-2-[[(2R,3S)-3-(Boc-L-phenylalanyl-L-histidylamino)-4-cyclohexyl-2-hydroxy-1-butyl]thio]methylpentanoyl]-4-methylpentanoyl]amino]ethyl]morpholine] and `CC(C)CC(C(=O)NCCN1CCOCC1)S(=O)(=O)C[C@H](O)[C@H](CC1CCCCC1)NC(=O)[C@H](Cc1c[nH]cn1)NC(=O)[C@H](Cc1ccccc1)NC(=O)OC(C)(C)C` (stereo partly shown) [4-[2-[[2 ---- RS )-2 [X-sulfonyl]-4-methyl-pentanoyl]amino]ethyl]morpholine] are within 1.5-fold of each other in IC50: 0.073 µM for the first, 0.077 µM for the second.

First: CC(C)(C)OC(=O)N[C@@H](Cc1ccccc1)C(=O)N[C@@H](Cc1c[nH]cn1)C(=O)N[C@@H](CC1CCCCC1)[C@@H](O)CS(=O)(=O)CC(=O)NC1CCN(Cc2ccccc2)CC1 [1-benzyl-4-[2-[X-sulfonyl]acetamido]piperidine]
Second: CC(C)(C)OC(=O)N[C@@H](Cc1ccccc1)C(=O)N[C@@H](Cc1c[nH]cn1)C(=O)N[C@@H](CC1CCCCC1)[C@@H](O)CS(=O)(=O)CC(=O)NC1C[N+]2([O-])CCC1CC2 (stereo partly shown) [3-[2-[X-sulfonyl]acetamido]quinuclidine-N-oxide]
The IC50 of the first is 8.1-fold higher: 0.034 µM for the first, 0.0042 µM for the second.

Compared with `CC(C)(C)OC(=O)N[C@@H](Cc1ccccc1)C(=O)N[C@@H](Cc1c[nH]cn1)C(=O)N[C@@H](CC1CCCCC1)[C@@H](O)CSCC(=O)O` [2-[X-thio]acetic acid, 2-[[(2R,3S)-3-(Boc-L-phenylalanyl-L-histidylamino)-4-cyclohexyl-2-hydroxy-1-butyl]thio]acetic acid], `CNCCN(C)C(=O)CSC[C@H](O)[C@H](CC1CCCCC1)NC(=O)[C@H](Cc1c[nH]cn1)NC(=O)[C@H](Cc1ccccc1)NC(=O)OC(C)(C)C` [N-[2-[[(2R,3S)-3-(Boc-L-phenylalanyl-L-histidylamino)-4-cyclohexyl-2-hydroxy-1-butyl]thio]acetyl]-N,N'-dimethylethylenediamine] is 5.6-fold lower in IC50: 0.904 µM for the first, 0.161 µM for the second.

`CC(C)(C)OC(=O)NC(Cc1ccccc1)C(=O)NC(Cc1cnc[nH]1)C(=O)NC(CC1CCCCC1)C(O)CSCC(=O)NC1CN2CCC1CC2` (stereo not shown) [3-[2-[X-thio]acetamido}quinuclidine] and `CN1CCN(C(=O)CSC[C@H](O)[C@H](CC2CCCCC2)NC(=O)[C@H](Cc2cnc[nH]2)NC(=O)[C@H](Cc2ccccc2)NC(=O)OC(C)(C)C)CC1` [4-[2-[X-thio]acetyl]-1-methylpiperazine, 4-[2-[[(2R,3S)-3-(Boc-L-phenylalanyl-L-histidylamino)-4-cyclohexyl-2-hydroxy-1-butyl]thio]acetyl]-1-methylpiperazine] are the same in IC50: 0.029 µM for the first, 0.029 µM for the second.

First: CC(C)(C)S(=O)(=O)C[C@@H](Cc1ccccc1)C(=O)N[C@@H](Cc1c[nH]cn1)C(=O)N[C@@H](CC1CCCCC1)[C@@H](O)CS(=O)(=O)CC(=O)NCCN1CCOCC1 [4-[2-[2-[[(2R,3S)3-[N^α -[(S)-2-[(t-Butylsulfonyl)-methyl]-3-phenylpropionyl]-L-histidylamino]-4-cyclohexyl-2-hydroxy-1-butyl]sulfonyl]-acetamido]ethyl]morpholine]
Second: CC(C)(C)OC(=O)N[C@@H](Cc1ccccc1)C(=O)N[C@@H](Cc1cnc[nH]1)C(=O)N[C@@H](CC1CCCCC1)[C@@H](O)C[S+]([O-])CC(=O)NCCN1CCOCC1 (stereo partly drawn) [4-[[(2R,3S)-3-(Boc-L-phenylalanyl-L-histidylamino)-4-cyclohexyl-2-hydroxy-1-butyl]-sulfinyl]acetyl]amino]ethyl]morpholine]
The IC50 of the first is 2.6-fold lower: 0.0072 µM for the first, 0.019 µM for the second. The first is the more potent here.

Compared with `CN1CCN(C(=O)CS(=O)(=O)C[C@H](O)[C@H](CC2CCCCC2)NC(=O)[C@H](Cc2cnc[nH]2)NC(=O)[C@H](Cc2ccccc2)NC(=O)OC(C)(C)C)CC1` [4-[2-[X-sulfonyl]acetyl]-1-methylpiperazine], `CCOC(=O)CSC[C@H](O)[C@H](CC1CCCCC1)NC(=O)[C@H](Cc1cnc[nH]1)NC(=O)[C@H](Cc1ccccc1)NC(=O)OC(C)(C)C` [ethyl 2-[X-thio]acetate, ethyl 2-[[(2R,3S) 3-(Boc-L-phenylalanyl-L-histidylamino)-4-cyclohexyl-2-hydroxy-1-butyl]thio]acetate] is 2.9-fold higher in IC50: 0.02 µM for the first, 0.058 µM for the second. The first is the more potent here.

`CC(C)CC(C(=O)NCCN1CCOCC1)[S+]([O-])C[C@H](O)[C@H](CC1CCCCC1)NC(=O)[C@H](Cc1cnc[nH]1)NC(=O)[C@H](Cc1ccccc1)NC(=O)OC(C)(C)C` (stereo partly shown) [4-[2-[[(2 ---- RS )-2-[X-sulfinyl]-4-methyl-pentanoyl]amino]ethyl]morpholine] and `CC(C)(C)OC(=O)N[C@@H](Cc1ccccc1)C(=O)N[C@@H](Cc1c[nH]cn1)C(=O)N[C@@H](CC1CCCCC1)[C@@H](O)CSCC(=O)NCc1ccncc1` [4-[[2-[X-thio]acetamido]methyl]pyridine] are within 1.5-fold of each other in IC50: 0.088 µM for the first, 0.092 µM for the second.
